Measurements as given in patent US9145392B2, “Imidazole amines as modulators of kinase activity” (Merck Patent GmbH, priority 2011, dated 2015).

What was measured:
[1] = target: P70S6K (T412E mutant) (Homo sapiens (Human), UniProt P23443, T412E); assay: P70S6K enzyme assay; type: biochemical; details: read-out: IC50 p70S6K
Method in brief: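 Phosphorylated product and substrate peptide separated by microfluidic capillary electrophoresis (Caliper LabChip 3000), product peaks resolving before substrate.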

[2] = target: His-AKT (Full Length) (Homo sapiens (Human), UniProt P31749); assay: AKT enzyme assay; type: biochemical; details: read-out: IC50 AKT
Chain of His-AKT (Full Length) (P31749 whole entry): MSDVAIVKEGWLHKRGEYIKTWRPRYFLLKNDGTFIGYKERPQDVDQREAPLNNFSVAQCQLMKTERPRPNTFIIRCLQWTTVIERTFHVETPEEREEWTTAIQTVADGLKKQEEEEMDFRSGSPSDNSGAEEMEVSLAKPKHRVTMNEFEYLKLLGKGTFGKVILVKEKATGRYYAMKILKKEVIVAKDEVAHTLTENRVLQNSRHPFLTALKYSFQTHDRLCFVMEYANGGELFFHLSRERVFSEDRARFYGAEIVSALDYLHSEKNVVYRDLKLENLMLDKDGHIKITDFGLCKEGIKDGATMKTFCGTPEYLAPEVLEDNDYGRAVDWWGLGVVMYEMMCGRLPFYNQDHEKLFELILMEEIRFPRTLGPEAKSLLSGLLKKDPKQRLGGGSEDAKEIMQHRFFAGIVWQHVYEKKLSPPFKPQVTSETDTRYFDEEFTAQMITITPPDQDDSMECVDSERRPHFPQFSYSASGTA

Chain of P70S6K (T412E mutant) (P23443 whole entry T412E): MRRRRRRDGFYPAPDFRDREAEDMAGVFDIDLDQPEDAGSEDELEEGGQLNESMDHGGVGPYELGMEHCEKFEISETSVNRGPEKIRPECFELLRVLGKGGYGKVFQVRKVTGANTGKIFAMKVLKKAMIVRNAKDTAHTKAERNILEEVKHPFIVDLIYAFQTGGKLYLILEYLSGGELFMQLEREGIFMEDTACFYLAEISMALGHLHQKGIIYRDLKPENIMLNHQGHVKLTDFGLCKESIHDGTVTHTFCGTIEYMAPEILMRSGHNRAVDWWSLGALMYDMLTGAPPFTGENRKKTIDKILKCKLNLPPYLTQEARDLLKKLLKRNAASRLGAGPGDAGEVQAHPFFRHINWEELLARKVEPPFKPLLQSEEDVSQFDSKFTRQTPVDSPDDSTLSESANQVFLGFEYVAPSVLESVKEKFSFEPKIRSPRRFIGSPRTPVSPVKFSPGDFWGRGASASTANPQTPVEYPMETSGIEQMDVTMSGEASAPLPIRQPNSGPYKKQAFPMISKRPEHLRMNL

**Q.** Which results are given for `CS(=O)(=O)c1cccc(-c2cn(CCN3CCC3)c(C3CCN(c4ncnc(N)c4C(N)=O)CC3)n2)c1` [Compound 356, 4-Amino-6-{4-[1-(2-azetidin-1-yl-ethyl)-4-(3-methanesulfonyl-phenyl)-1H-imidazol-2-yl]-piperidin-1-yl}-pyrimidine-5-carboxylic acid amide]?
**A.** IC50 [1]: 80 nM; IC50 [2]: 560 nM

**Q.** Which results are given for `N#Cc1c(N)ncnc1N1CCC(c2nc(-c3ccc(F)c(C(F)(F)F)c3)cn2CCO)CC1` [Compound 357, 4-Amino-6-{4-[4-(4-fluoro-3-trifluoromethyl-phenyl)-1-(2-hydroxy-ethyl)-1H-imidazol-2-yl]-piperidin-1-yl}-pyrimidine-5-carbonitrile]?
**A.** IC50 [1]: 0.8 nM; IC50 [2]: 130 nM

**Q.** What does the source list for `N#Cc1c(N)ncnc1N1CCC(c2nc(-c3ccc(F)c(C(F)(F)F)c3)cn2CCNCC2CC2)CC1` [Compound 358, 4-Amino-6-{4-[1-[2-(cyclopropylmethyl-amino)-ethyl]-4-(4-fluoro-3-trifluoromethyl-phenyl)-1H-imidazol-2-yl]-piperidin-1-yl}-pyrimidine-5-carbonitrile]?
**A.** IC50 [1]: 1.1 nM; IC50 [2]: 1.6 nM

**Q.** `NC(=O)c1c(N)ncnc1N1CCC(c2nc(-c3ccc(F)c(C(F)(F)F)c3)cn2CCNCC2CC2)CC1` [Compound 359, 4-Amino-6-{4-[1-[2-(cyclopropylmethyl-amino)-ethyl]-4-(4-fluoro-3-trifluoromethyl-phenyl)-1H-imidazol-2-yl]-piperidin-1-yl}-pyrimidine-5-carboxylic acid amide] was tested. Which IC50 [1] did it give?
**A.** Its IC50 is 2.7 nM.

**Q.** What about the IC50 [2] of the same molecule?
**A.** Its IC50 is 12 nM.

**Q.** With `CC(C)N(C)CCn1cc(-c2ccc(F)c(C(F)(F)F)c2)nc1C1CCN(c2ncnc(N)c2C#N)CC1` [Compound 360, 4-Amino-6-(4-{4-(4-fluoro-3-trifluoromethyl-phenyl)-1-[2-(isopropyl-methyl-amino)-ethyl]-1H-imidazol-2-yl}-piperidin-1-yl)-pyrimidine-5-carbonitrile] as the molecule, how does the IC50 [1] read?
**A.** The IC50 was 2.2 nM.

**Q.** And the IC50 [2]?
**A.** Its IC50 is 2.7 nM.

**Q.** With `CC(C)N(C)CCn1cc(-c2ccc(F)c(C(F)(F)F)c2)nc1C1CCN(c2ncnc(N)c2C(N)=O)CC1` [Compound 361, 4-Amino-6-(4-{4-(4-fluoro-3-trifluoromethyl-phenyl)-1-[2-(isopropyl-methyl-amino)-ethyl]-1H-imidazol-2-yl}-piperidin-1-yl)-pyrimidine-5-carboxylic acid amide] as the molecule, how does the IC50 [1] read?
**A.** Its IC50 is 6.4 nM.

**Q.** What about the IC50 [2] of the same molecule?
**A.** Its IC50 is 11 nM.

**Q.** What does the source list for `CN(C)CCN(C)CCn1cc(-c2ccc(F)c(C(F)(F)F)c2)nc1C1CCN(c2ncnc(N)c2C#N)CC1` [Compound 362, 4-Amino-6-{4-[1-{2-[(2-dimethylamino-ethyl)-methyl-amino]-ethyl}-4-(4-fluoro-3-trifluoromethyl-phenyl)-1H-imidazol-2-yl]-piperidin-1-yl}-pyrimidine-5-carbonitrile]?
**A.** IC50 [1]: 4.1 nM; IC50 [2]: 76 nM

**Q.** Which results are given for `COCCN(C)CCn1cc(-c2ccc(F)c(C(F)(F)F)c2)nc1C1CCN(c2ncnc(N)c2C#N)CC1` [Compound 363, 4-Amino-6-[4-(4-(4-fluoro-3-trifluoromethyl-phenyl)-1-{2-[(2-methoxy-ethyl)-methyl-amino]-ethyl}-1H-imidazol-2-yl)-piperidin-1-yl]-pyrimidine-5-carbonitrile]?
**A.** IC50 [1]: 3.4 nM; IC50 [2]: 26 nM

**Q.** Which IC50 [1] does the source give for `COCCNCCn1cc(-c2ccc(F)c(C(F)(F)F)c2)nc1C1CCN(c2ncnc(N)c2C#N)CC1` [Compound 364, 4-Amino-6-(4-{4-(4-fluoro-3-trifluoromethyl-phenyl)-1-[2-(2-methoxy-ethylamino)-ethyl]-1H-imidazol-2-yl}-piperidin-1-yl)-pyrimidine-5-carbonitrile] here?
**A.** The IC50 was 1.4 nM.

**Q.** And the IC50 [2]?
**A.** The IC50 was 2.5 nM.

**Q.** Which results are given for `CN(C)CCN(C)CCn1cc(-c2ccc(F)c(C(F)(F)F)c2)nc1C1CCN(c2ncnc(N)c2C(N)=O)CC1` [Compound 365, 4-Amino-6-{4-[1-{2-[(2-dimethylamino-ethyl)-methyl-amino]-ethyl}-4-(4-fluoro-3-trifluoromethyl-phenyl)-1H-imidazol-2-yl]-piperidin-1-yl}-pyrimidine-5-carboxylic acid amide]?
**A.** IC50 [1]: 6.3 nM; IC50 [2]: 730 nM

**Q.** Which IC50 [1] does the source give for `COCCN(C)CCn1cc(-c2ccc(F)c(C(F)(F)F)c2)nc1C1CCN(c2ncnc(N)c2C(N)=O)CC1` [Compound 366, 4-Amino-6-[4-(4-(4-fluoro-3-trifluoromethyl-phenyl)-1-{2-[(2-methoxy-ethyl)-methyl-amino]-ethyl}-1H-imidazol-2-yl)-piperidin-1-yl]-pyrimidine-5-carboxylic acid amide] here?
**A.** The IC50 was 9.2 nM.

**Q.** And the IC50 [2]?
**A.** Its IC50 is 440 nM.

**Q.** For `COCCNCCn1cc(-c2ccc(F)c(C(F)(F)F)c2)nc1C1CCN(c2ncnc(N)c2C(N)=O)CC1` [Compound 367, 4-Amino-6-(4-{4-(4-fluoro-3-trifluoromethyl-phenyl)-1-[2-(2-methoxy-ethylamino)-ethyl]-1H-imidazol-2-yl}-piperidin-1-yl)-pyrimidine-5-carboxylic acid amide], which IC50 [1] is on record?
**A.** Its IC50 is 4 nM.

**Q.** What about the IC50 [2] of the same molecule?
**A.** The IC50 was 67 nM.

**Q.** Which results are given for `CN(CCn1cc(-c2ccc(F)c(C(F)(F)F)c2)nc1C1CCN(c2ncnc(N)c2C(N)=O)CC1)Cc1ccccc1` [Compound 368, 4-Amino-6-{4[1-[2-(benzyl-methyl-amino)-ethyl]-4-(4-fluoro-3-trifluoromethyl-phenyl)-1H-imidazol-2-yl]-piperidin-1-yl}-pyrimidine-5-carboxylic acid amide]?
**A.** IC50 [1]: 21 nM; IC50 [2]: 760 nM

**Q.** How did the IC50 [1] turn out when `CC(C)NCCn1cc(-c2ccc(F)c(C(F)(F)F)c2)nc1C1CCN(c2ncnc(N)c2C#N)CC1` [Compound 369, 4-Amino-6-{4-[4-(4-fluoro-3-trifluoromethyl-phenyl)-1-(2-isopropylamino-ethyl)-1H-imidazol-2-yl]-piperidin-1-yl}-pyrimidine-5-carbonitrile] was run?
**A.** Its IC50 is 3.6 nM.

**Q.** And the IC50 [2]?
**A.** Its IC50 is 5.4 nM.

**Q.** For `CC(C)NCCn1cc(-c2ccc(F)c(C(F)(F)F)c2)nc1C1CCN(c2ncnc(N)c2C(N)=O)CC1` [Compound 370, 4-Amino-6-{4-[4-(4-fluoro-3-trifluoromethyl-phenyl)-1-(2-isopropylamino-ethyl)-1H-imidazol-2-yl]-piperidin-1-yl}-pyrimidine-5-carboxylic acid amide], which IC50 [1] is on record?
**A.** The IC50 was 0.9 nM.

**Q.** What about the IC50 [2] of the same molecule?
**A.** Its IC50 is 2.5 nM.

**Q.** How did the IC50 [1] turn out when `COCC(C)NCCn1cc(-c2ccc(F)c(C(F)(F)F)c2)nc1C1CCN(c2ncnc(N)c2C(N)=O)CC1` (centres unmarked) [Compound 371, 4-Amino-6-(4-{4-(4-fluoro-3-trifluoromethyl-phenyl)-1-[2-(2-methoxy-1-methyl-ethylamino)-ethyl]-1H-imidazol-2-yl}-piperidin-1-yl)-pyrimidine-5-carboxylic acid amide] was run?
**A.** Its IC50 is 18 nM.

**Q.** And the IC50 [2]?
**A.** The IC50 was 85 nM.

**Q.** `CC(C)CNCCn1cc(-c2ccc(F)c(C(F)(F)F)c2)nc1C1CCN(c2ncnc(N)c2C#N)CC1` [Compound 372, 4-Amino-6-{4-[4-(4-fluoro-3-trifluoromethyl-phenyl)-1-(2-isobutylamino-ethyl)-1H-imidazol-2-yl]-piperidin-1-yl}-pyrimidine-5-carbonitrile] was tested. Which IC50 [1] did it give?
**A.** The IC50 was 0.2 nM.

**Q.** What about the IC50 [2] of the same molecule?
**A.** The IC50 was 0.7 nM.

**Q.** Which IC50 [1] does the source give for `CC(C)CNCCn1cc(-c2ccc(F)c(C(F)(F)F)c2)nc1C1CCN(c2ncnc(N)c2C(N)=O)CC1` [Compound 373, 4-Amino-6-{4-[4-(4-fluoro-3-trifluoromethyl-phenyl)-1-(2-isobutylamino-ethyl)-1H-imidazol-2-yl]-piperidin-1-yl}-pyrimidine-5-carboxylic acid amide] here?
**A.** Its IC50 is 2.9 nM.

**Q.** And the IC50 [2]?
**A.** Its IC50 is 12 nM.

**Q.** Which IC50 [1] does the source give for `CNCCn1cc(-c2ccc(F)c(C(F)(F)F)c2)nc1C1CCN(c2ncnc(N)c2C#N)CC1` [Compound 374, 4-Amino-6-{4-[4-(4-fluoro-3-trifluoromethyl-phenyl)-1-(2-methylamino-ethyl)-1H-imidazol-2-yl]-piperidin-1-yl}-pyrimidine-5-carbonitrile] here?
**A.** The IC50 was 0.4 nM.

**Q.** What about the IC50 [2] of the same molecule?
**A.** The IC50 was 1.5 nM.

**Q.** Which IC50 [1] does the source give for `CC(C)(C)NCCn1cc(-c2ccc(F)c(C(F)(F)F)c2)nc1C1CCN(c2ncnc(N)c2C#N)CC1` [Compound 375, 4-Amino-6-{4-[1-(2-tert-butylamino-ethyl)-4-(4-fluoro-3-trifluoromethyl-phenyl)-1H-imidazol-2-yl]-piperidin-1-yl}-pyrimidine-5-carbonitrile] here?
**A.** The IC50 was 1.3 nM.

**Q.** What about the IC50 [2] of the same molecule?
**A.** Its IC50 is 1.9 nM.

**Q.** With `CNCCn1cc(-c2ccc(F)c(C(F)(F)F)c2)nc1C1CCN(c2ncnc(N)c2C(N)=O)CC1` [Compound 376, 4-Amino-6-{4-[4-(4-fluoro-3-trifluoromethyl-phenyl)-1-(2-methylamino-ethyl)-1H-imidazol-2-yl]-piperidin-1-yl}-pyrimidine-5-carboxylic acid amide] as the molecule, how does the IC50 [1] read?
**A.** The IC50 was 3.4 nM.

**Q.** What about the IC50 [2] of the same molecule?
**A.** The IC50 was 33 nM.

**Q.** How did the IC50 [1] turn out when `CC(C)(C)NCCn1cc(-c2ccc(F)c(C(F)(F)F)c2)nc1C1CCN(c2ncnc(N)c2C(N)=O)CC1` [Compound 377, 4-Amino-6-{4-[1-(2-tert-butylamino-ethyl)-4-(4-fluoro-3-trifluoromethyl-phenyl)-1H-imidazol-2-yl]-piperidin-1-yl}-pyrimidine-5-carboxylic acid amide] was run?
**A.** Its IC50 is 2 nM.

**Q.** What about the IC50 [2] of the same molecule?
**A.** The IC50 was 9.7 nM.

**Q.** How did the IC50 [1] turn out when `Cc1cc(-c2cn(CCNCC3CC3)c(C3CCN(c4ncnc(N)c4C#N)CC3)n2)ccc1F` [Compound 378, 4-Amino-6-{4-[1-[2-(cyclopropylmethyl-amino)-ethyl]-4-(4-fluoro-3-methyl-phenyl)-1H-imidazol-2-yl]-piperidin-1-yl}-pyrimidine-5-carbonitrile] was run?
**A.** Its IC50 is 0.8 nM.

**Q.** What about the IC50 [2] of the same molecule?
**A.** Its IC50 is 2.3 nM.

**Q.** Which results are given for `Cc1cc(-c2cn(CCN(C)C(C)C)c(C3CCN(c4ncnc(N)c4C#N)CC3)n2)ccc1F` [Compound 379, 4-Amino-6-(4-{4-(4-fluoro-3-methyl-phenyl)-1-[2-(isopropyl-methyl-amino)-ethyl]-1H-imidazol-2-yl}-piperidin-1-yl)-pyrimidine-5-carbonitrile]?
**A.** IC50 [1]: 0.8 nM; IC50 [2]: 2.7 nM

**Q.** What does the source list for `Cc1cc(-c2cn(CCNC(C)C)c(C3CCN(c4ncnc(N)c4C#N)CC3)n2)ccc1F` [Compound 380, 4-Amino-6-{4-[4-(4-fluoro-3-methyl-phenyl)-1-(2-isopropylamino-ethyl)-1H-imidazol-2-yl]-piperidin-1-yl}-pyrimidine-5-carbonitrile]?
**A.** IC50 [1]: 1.3 nM; IC50 [2]: 2.9 nM
